In PubChem BioAssay (NCI):
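Values below derive from 48-hour exposures of cells grown in 96-well plates, with endpoints linearly interpolated between the two concentrations bracketing the appropriate inhibition level. TGI marks complete inhibition of growth.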

Columns and labels:
Test in all cases: DTP human tumour cell line panel, 48 h
LXFL 529 NSCLC = system: LXFL 529 NSCLC
RPMI-8226 leukemia = system: RPMI-8226 leukemia
RXF 393 renal = system: RXF 393 renal
DMS 273 small cell lung = system: DMS 273 small cell lung
HOP-18 NSCLC = system: HOP-18 NSCLC
A549 NSCLC = system: A549 NSCLC
786-0 renal = system: 786-0 renal
DLD-1 colon = system: DLD-1 colon
NCI-H23 lung = system: NCI-H23 lung
EKVX NSCLC = system: EKVX NSCLC
RXF-631 renal = system: RXF-631 renal
OVCAR-3 ovarian = system: OVCAR-3 ovarian
UO-31 renal = system: UO-31 renal
SK-MEL-5 melanoma = system: SK-MEL-5 melanoma
HL-60(TB) leukemia = system: HL-60(TB) leukemia
M19-MEL melanoma = system: M19-MEL melanoma
LOX IMVI melanoma = system: LOX IMVI melanoma
SK-MEL-28 melanoma = system: SK-MEL-28 melanoma
K-562 leukemia = system: K-562 leukemia
CCRF-CEM leukemia = system: CCRF-CEM leukemia
SF-268 CNS = system: SF-268 CNS
CAKI-1 renal = system: CAKI-1 renal
OVCAR-4 ovarian = system: OVCAR-4 ovarian
A498 renal = system: A498 renal
KM20L2 colon = system: KM20L2 colon
M14 melanoma = system: M14 melanoma
UACC-257 melanoma = system: UACC-257 melanoma
SN12C renal = system: SN12C renal
NCI-H226 lung = system: NCI-H226 lung
HCT-15 colon = system: HCT-15 colon
HCT-116 colon = system: HCT-116 colon
MALME-3M melanoma = system: MALME-3M melanoma
HOP-92 NSCLC = system: HOP-92 NSCLC
IGROV1 ovarian = system: IGROV1 ovarian
HCC-2998 colon = system: HCC-2998 colon
SF-539 CNS = system: SF-539 CNS
ACHN renal = system: ACHN renal
UACC-62 melanoma = system: UACC-62 melanoma
COLO 205 colon = system: COLO 205 colon
SF-295 CNS = system: SF-295 CNS
NCI-H522 lung = system: NCI-H522 lung
DMS 114 small cell lung = system: DMS 114 small cell lung
SW-620 colon = system: SW-620 colon
SNB-19 CNS = system: SNB-19 CNS
U251 CNS = system: U251 CNS
MOLT-4 leukemia = system: MOLT-4 leukemia
SNB-75 CNS = system: SNB-75 CNS
OVCAR-8 ovarian = system: OVCAR-8 ovarian
SK-OV-3 ovarian = system: SK-OV-3 ovarian
SR leukemia = system: SR leukemia
HT29 colon = system: HT29 colon
SNB-78 CNS = system: SNB-78 CNS
OVCAR-5 ovarian = system: OVCAR-5 ovarian
HOP-62 NSCLC = system: HOP-62 NSCLC
SK-MEL-2 melanoma = system: SK-MEL-2 melanoma
NCI-H460 lung = system: NCI-H460 lung
KM12 colon = system: KM12 colon
TK-10 renal = system: TK-10 renal

With `C/C(=N\NC(C)(C)C)c1sc(-c2nc(C)c(/C(C)=N/NC(C)(C)C)s2)nc1C` the TGI (LXFL 529 NSCLC) was > 100 µM, the TGI (RPMI-8226 leukemia) was > 100 µM and the TGI (RXF 393 renal) was > 100 µM. For the same molecule, the TGI (DMS 273 small cell lung) was > 100 µM, the TGI (HOP-18 NSCLC) was > 100 µM and the TGI (A549 NSCLC) was > 100 µM. For the same molecule, the TGI (786-0 renal) was > 100 µM, the TGI (DLD-1 colon) was > 100 µM and the TGI (NCI-H23 lung) was > 100 µM. The TGI (EKVX NSCLC) was > 100 µM, the TGI (RXF-631 renal) was > 100 µM and the TGI (OVCAR-3 ovarian) was > 100 µM. The TGI (UO-31 renal) was > 100 µM, the TGI (SK-MEL-5 melanoma) was > 100 µM and the TGI (HL-60(TB) leukemia) was > 100 µM. For the same molecule, the TGI (M19-MEL melanoma) was > 100 µM, the TGI (LOX IMVI melanoma) was > 100 µM and the TGI (SK-MEL-28 melanoma) was > 100 µM. For the same molecule, the TGI (K-562 leukemia) was > 100 µM, the TGI (CCRF-CEM leukemia) was > 100 µM and the TGI (SF-268 CNS) was > 100 µM. The TGI (CAKI-1 renal) was > 100 µM, the TGI (OVCAR-4 ovarian) was > 100 µM and the TGI (A498 renal) was > 100 µM. The TGI (KM20L2 colon) was > 100 µM, the TGI (M14 melanoma) was > 100 µM and the TGI (UACC-257 melanoma) was > 100 µM. The TGI (SN12C renal) was > 100 µM, the TGI (NCI-H226 lung) was > 100 µM and the TGI (HCT-15 colon) was > 100 µM. The TGI (HCT-116 colon) was > 100 µM, the TGI (MALME-3M melanoma) was > 100 µM and the TGI (HOP-92 NSCLC) was > 100 µM. The TGI (IGROV1 ovarian) was > 100 µM, the TGI (HCC-2998 colon) was > 100 µM and the TGI (SF-539 CNS) was > 100 µM. The TGI (ACHN renal) was > 100 µM, the TGI (UACC-62 melanoma) was > 100 µM and the TGI (COLO 205 colon) was > 100 µM. The TGI (SF-295 CNS) was > 100 µM, the TGI (NCI-H522 lung) was > 100 µM and the TGI (DMS 114 small cell lung) was > 100 µM. For the same molecule, the TGI (SW-620 colon) was > 100 µM, the TGI (SNB-19 CNS) was > 100 µM and the TGI (U251 CNS) was > 100 µM. The TGI (MOLT-4 leukemia) was > 100 µM, the TGI (SNB-75 CNS) was > 100 µM and the TGI (OVCAR-8 ovarian) was > 100 µM. For the same molecule, the TGI (SK-OV-3 ovarian) was > 100 µM, the TGI (SR leukemia) was > 100 µM and the TGI (HT29 colon) was > 100 µM. The TGI (SNB-78 CNS) was > 100 µM.

In the case of `Cc1ccccc1OCC(COC(=O)Nc1ccccc1)OC(=O)Nc1ccccc1` (centres undefined), the TGI (LXFL 529 NSCLC) is reported as > 100 µM, the TGI (RPMI-8226 leukemia) is reported as > 100 µM and the TGI (RXF 393 renal) is reported as 43.5 µM. The TGI (DMS 273 small cell lung) was > 100 µM, the TGI (HOP-18 NSCLC) was 86.6 µM and the TGI (A549 NSCLC) was > 100 µM. For the same molecule, the TGI (DLD-1 colon) was > 100 µM, the TGI (NCI-H23 lung) was > 100 µM and the TGI (EKVX NSCLC) was > 100 µM. For the same molecule, the TGI (RXF-631 renal) was > 100 µM, the TGI (OVCAR-3 ovarian) was > 100 µM and the TGI (UO-31 renal) was > 100 µM. The TGI (SK-MEL-5 melanoma) was > 100 µM, the TGI (OVCAR-5 ovarian) was > 100 µM and the TGI (HL-60(TB) leukemia) was 68.7 µM. The TGI (M19-MEL melanoma) was > 100 µM, the TGI (LOX IMVI melanoma) was 55.9 µM and the TGI (HOP-62 NSCLC) was > 100 µM. For the same molecule, the TGI (SK-MEL-2 melanoma) was > 100 µM, the TGI (SK-MEL-28 melanoma) was > 100 µM and the TGI (K-562 leukemia) was 27.8 µM. For the same molecule, the TGI (CCRF-CEM leukemia) was > 100 µM, the TGI (SF-268 CNS) was > 100 µM and the TGI (CAKI-1 renal) was > 100 µM. The TGI (OVCAR-4 ovarian) was > 100 µM, the TGI (A498 renal) was > 100 µM and the TGI (KM20L2 colon) was > 100 µM. The TGI (M14 melanoma) was > 100 µM, the TGI (NCI-H460 lung) was > 100 µM and the TGI (UACC-257 melanoma) was > 100 µM. For the same molecule, the TGI (SN12C renal) was > 100 µM, the TGI (NCI-H226 lung) was > 100 µM and the TGI (HCT-15 colon) was > 100 µM. For the same molecule, the TGI (HCT-116 colon) was > 100 µM, the TGI (MALME-3M melanoma) was > 100 µM and the TGI (KM12 colon) was > 100 µM. The TGI (HOP-92 NSCLC) was 38.5 µM, the TGI (IGROV1 ovarian) was > 100 µM and the TGI (HCC-2998 colon) was > 100 µM. For the same molecule, the TGI (TK-10 renal) was > 100 µM, the TGI (SF-539 CNS) was 15.4 µM and the TGI (ACHN renal) was > 100 µM. For the same molecule, the TGI (UACC-62 melanoma) was > 100 µM, the TGI (COLO 205 colon) was > 100 µM and the TGI (SF-295 CNS) was > 100 µM. For the same molecule, the TGI (NCI-H522 lung) was > 100 µM, the TGI (DMS 114 small cell lung) was > 100 µM and the TGI (SW-620 colon) was > 100 µM. For the same molecule, the TGI (SNB-19 CNS) was 89.4 µM, the TGI (U251 CNS) was > 100 µM and the TGI (MOLT-4 leukemia) was > 100 µM. For the same molecule, the TGI (SNB-75 CNS) was 38.3 µM, the TGI (OVCAR-8 ovarian) was > 100 µM and the TGI (SK-OV-3 ovarian) was > 100 µM. The TGI (SR leukemia) was > 100 µM, the TGI (HT29 colon) was > 100 µM and the TGI (SNB-78 CNS) was 79 µM.
